This is an account of results in ChEMBL document CHEMBL3526141, “Characterization of human liver enzymes involved in the biotransformation of boceprevir, a hepatitis C virus protease inhibitor” (Drug Metab Dispos, 2011).

The structures appear in SMILES notation.

Series [1] has as its target T1, Aldo-keto reductase family 1 member C2 (Homo sapiens, UniProt P52895).
T1 sequence (P52895 whole entry): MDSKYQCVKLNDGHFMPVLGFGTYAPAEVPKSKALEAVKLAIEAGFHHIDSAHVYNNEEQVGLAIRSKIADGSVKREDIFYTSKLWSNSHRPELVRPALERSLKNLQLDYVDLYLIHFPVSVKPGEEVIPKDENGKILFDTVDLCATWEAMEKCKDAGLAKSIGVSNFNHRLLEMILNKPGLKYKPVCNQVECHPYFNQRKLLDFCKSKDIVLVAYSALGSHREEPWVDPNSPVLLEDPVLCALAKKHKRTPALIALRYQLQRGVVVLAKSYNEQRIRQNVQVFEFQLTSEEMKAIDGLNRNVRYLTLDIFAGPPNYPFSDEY
As to the kind of experiment: Drug metabolism in human recombinant AKR1C2 expressing HEK293 cells treated with 20 uM boceprevir assessed as 1 mM ibuprofen-mediated inhibition of AKR1C2-mediated metabolite formation after 120 mins in presence of NADPH by LC-MS/MS/FSA method. More on the design: interact cpd dose 1 mM. The note with it: hek293, 2 h. It counts as ADME, cell-based.

The next series concerns the target Cytochrome P450 3A5 (Homo sapiens, UniProt P20815). As to the kind of experiment: Drug metabolism assessed as human CYP3A5-mediated compound formation from 20 uM [14C]boceprevir after 120 mins by LC-MS/FSA method relative to total [14C]boceprevir. The series is classed as ADME. The note with it: recombinant enzyme, 2 h.
For the next series, the target named is Cytochrome P450 2D6 (Homo sapiens, UniProt P10635). As to the kind of experiment: Drug metabolism assessed as human CYP2D6-mediated compound formation from 5 uM [14C]boceprevir after 120 mins by LC-MS/FSA method relative to total [14C]boceprevir. The series is classed as ADME. The note with it: recombinant enzyme, 2 h.
For a further series, the target named is Cytochrome P450 3A4 (Homo sapiens, UniProt P08684). As to the kind of experiment: Drug metabolism assessed as human CYP3A4-mediated compound formation from 20 uM [14C]boceprevir after 120 mins by LC-MS/FSA method relative to total [14C]boceprevir. The series is classed as ADME. The note with it: recombinant enzyme, 2 h.
A short description of series [2]: Drug metabolism in human liver mitochondria treated with 20 uM assessed as compound formation in presence of NADPH generating system by LC-MS/MS/FSA method. It counts as ADME.
The target of series [3] is T1, Aldo-keto reductase family 1 member C2. The series is described as follows: Drug metabolism in human recombinant AKR1C2 expressing HEK293 cells treated with 20 uM boceprevir assessed as 100 uM flufenamic acid-mediated inhibition of AKR1C2-mediated metabolite formation after 120 mins in presence of NADPH by LC-MS/MS/FSA method. Conditions: hek293, 2 h. Also noted: interact cpd dose 100 uM. The series is classed as ADME, cell-based.

Series [4] has as its system Liver cytosol. The series is described as follows: Drug metabolism in human liver cytosol treated with 20 uM assessed as compound formation in presence of NADPH generating system by LC-MS/MS/FSA method. The series is classed as ADME.
Series [5] relates to Liver cytosol. The series is described as follows: Drug metabolism in human liver cytosol at 20 uM assessed as (1R,2S,5S)-N-((2S,3R)-4-amino-1-cyclobutyl-3-hydroxy-4-oxobutan-2-yl)-3-((S)-2-(3-tert-butylureido)-3,3-dimethylbutanoyl)-6,6-dimethyl-3-azabicyclo[3.1.0]hexane-2-carboxamide formation in presence of mefenamic acid by LC-MS/MS/FSA method. The series is classed as ADME.

The target in another series is T2, Cytochrome P450 4F12 (Homo sapiens, UniProt Q9HCS2).
T2 sequence (Q9HCS2 whole entry): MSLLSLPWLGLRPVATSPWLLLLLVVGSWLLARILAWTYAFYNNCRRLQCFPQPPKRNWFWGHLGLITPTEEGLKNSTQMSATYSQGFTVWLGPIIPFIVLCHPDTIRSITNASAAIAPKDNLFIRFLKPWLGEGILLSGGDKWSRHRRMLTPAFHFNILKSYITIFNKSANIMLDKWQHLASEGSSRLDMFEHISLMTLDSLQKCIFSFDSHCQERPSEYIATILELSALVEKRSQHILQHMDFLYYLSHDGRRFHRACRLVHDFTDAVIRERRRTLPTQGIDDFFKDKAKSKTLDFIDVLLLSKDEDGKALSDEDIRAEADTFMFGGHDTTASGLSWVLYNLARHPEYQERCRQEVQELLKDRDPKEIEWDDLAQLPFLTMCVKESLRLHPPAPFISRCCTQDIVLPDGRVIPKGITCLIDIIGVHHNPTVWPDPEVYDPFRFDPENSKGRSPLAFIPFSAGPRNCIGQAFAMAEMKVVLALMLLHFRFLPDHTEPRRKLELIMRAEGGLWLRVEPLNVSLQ
The series is described as follows: Drug metabolism assessed as human CYP4F12-mediated compound formation from 5 to 20 uM [14C]boceprevir after 120 mins by LC-MS/FSA method relative to total [14C]boceprevir. It counts as ADME. Conditions: recombinant enzyme, 2 h.

Series [6] is described as follows: Drug excretion in human urine. More on the design: dosed compound name [14C]boceprevir. It counts as ADME.
The subject of series [7] is Liver cytosol. As to the kind of experiment: Drug metabolism in human liver cytosol at 20 uM assessed as (1R,2S,5S)-N-((2S,3R)-4-amino-1-cyclobutyl-3-hydroxy-4-oxobutan-2-yl)-3-((S)-2-(3-tert-butylureido)-3,3-dimethylbutanoyl)-6,6-dimethyl-3-azabicyclo[3.1.0]hexane-2-carboxamide formation in presence of menadione by LC-MS/MS/FSA method. It counts as ADME.
Series [8] concerns Liver cytosol. The series is described as follows: Drug metabolism in human liver cytosol at 20 uM assessed as (1R,2S,5S)-N-((2S,3R)-4-amino-1-cyclobutyl-3-hydroxy-4-oxobutan-2-yl)-3-((S)-2-(3-tert-butylureido)-3,3-dimethylbutanoyl)-6,6-dimethyl-3-azabicyclo[3.1.0]hexane-2-carboxamide formation in presence of allopurinol by LC-MS/MS/FSA method. The series is classed as ADME.

The subject of series [9] is Liver cytosol. The series is described as follows: Drug metabolism in human liver cytosol at 20 uM assessed as (1R,2S,5S)-N-((2S,3R)-4-amino-1-cyclobutyl-3-hydroxy-4-oxobutan-2-yl)-3-((S)-2-(3-tert-butylureido)-3,3-dimethylbutanoyl)-6,6-dimethyl-3-azabicyclo[3.1.0]hexane-2-carboxamide formation in presence of phenolphthalein by LC-MS/MS/FSA method. The series is classed as ADME.

For series [10], the system named is Liver cytosol. As to the kind of experiment: Drug metabolism in human liver cytosol at 20 uM assessed as (1R,2S,5S)-N-((2S,3R)-4-amino-1-cyclobutyl-3-hydroxy-4-oxobutan-2-yl)-3-((S)-2-(3-tert-butylureido)-3,3-dimethylbutanoyl)-6,6-dimethyl-3-azabicyclo[3.1.0]hexane-2-carboxamide formation at 20 uM after 60 mins in presence of ketoconazole by LC-MS/MS/FSA method. The series is classed as ADME. Conditions: 1 h.

A short description of series [11]: Drug excretion in human feces. It counts as ADME. Also noted: dosed compound name [14C]boceprevir.
Series [12] can be described thus: Drug metabolism in human liver S9 fraction at 20 uM assessed as (1R,2S,5S)-N-((2S,3R)-4-amino-1-cyclobutyl-3-hydroxy-4-oxobutan-2-yl)-3-((S)-2-(3-tert-butylureido)-3,3-dimethylbutanoyl)-6,6-dimethyl-3-azabicyclo[3.1.0]hexane-2-carboxamide formation in presence of quercetin by LC-MS/MS/FSA method. The series is classed as ADME, subcellular. Conditions: s9, 20 µM.

Series [13] has as its system Liver cytosol. As to the kind of experiment: Drug metabolism in human liver cytosol at 20 uM assessed as (1R,2S,5S)-N-((2S,3R)-4-amino-1-cyclobutyl-3-hydroxy-4-oxobutan-2-yl)-3-((S)-2-(3-tert-butylureido)-3,3-dimethylbutanoyl)-6,6-dimethyl-3-azabicyclo[3.1.0]hexane-2-carboxamide formation at 20 uM after 60 mins in presence of AKR inhibitor ibuprofen by LC-MS/MS/FSA method. It counts as ADME. Conditions: 1 h.

A short description of series [14]: Drug metabolism in human liver S9 fraction at 20 uM assessed as (1R,2S,5S)-N-((2S,3R)-4-amino-1-cyclobutyl-3-hydroxy-4-oxobutan-2-yl)-3-((S)-2-(3-tert-butylureido)-3,3-dimethylbutanoyl)-6,6-dimethyl-3-azabicyclo[3.1.0]hexane-2-carboxamide formation in presence of pargyline by LC-MS/MS/FSA method. The series is classed as ADME, subcellular. Conditions: s9, 20 µM.

Sequence of Cytochrome P450 2D6 (P10635 whole entry): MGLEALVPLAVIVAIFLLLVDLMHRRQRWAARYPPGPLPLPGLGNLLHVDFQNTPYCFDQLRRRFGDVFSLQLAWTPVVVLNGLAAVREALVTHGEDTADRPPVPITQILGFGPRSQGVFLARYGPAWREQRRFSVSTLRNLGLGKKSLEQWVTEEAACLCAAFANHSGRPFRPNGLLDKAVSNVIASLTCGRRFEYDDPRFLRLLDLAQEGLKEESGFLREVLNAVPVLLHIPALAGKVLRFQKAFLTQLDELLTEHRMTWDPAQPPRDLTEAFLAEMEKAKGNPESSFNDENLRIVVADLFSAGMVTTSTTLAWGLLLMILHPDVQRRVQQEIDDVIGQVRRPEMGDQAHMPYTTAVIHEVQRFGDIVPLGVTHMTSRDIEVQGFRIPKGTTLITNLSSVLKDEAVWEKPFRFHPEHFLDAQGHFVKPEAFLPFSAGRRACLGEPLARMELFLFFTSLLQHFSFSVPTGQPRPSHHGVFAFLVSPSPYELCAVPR
Sequence of Cytochrome P450 3A5 (P20815 whole entry): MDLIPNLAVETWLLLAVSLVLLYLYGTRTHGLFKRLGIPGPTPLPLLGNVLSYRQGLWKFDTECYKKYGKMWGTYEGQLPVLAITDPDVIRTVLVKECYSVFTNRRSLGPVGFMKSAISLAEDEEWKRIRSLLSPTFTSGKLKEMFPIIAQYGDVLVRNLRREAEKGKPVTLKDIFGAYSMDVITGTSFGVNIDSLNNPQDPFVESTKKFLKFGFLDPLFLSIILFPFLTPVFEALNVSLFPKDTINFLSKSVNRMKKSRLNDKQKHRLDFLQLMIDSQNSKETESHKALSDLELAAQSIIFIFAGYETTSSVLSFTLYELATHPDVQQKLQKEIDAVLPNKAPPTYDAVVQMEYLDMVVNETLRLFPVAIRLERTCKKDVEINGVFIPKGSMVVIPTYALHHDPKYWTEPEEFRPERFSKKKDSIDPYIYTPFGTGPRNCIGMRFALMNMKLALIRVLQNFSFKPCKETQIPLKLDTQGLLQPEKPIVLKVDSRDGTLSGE
Sequence of Cytochrome P450 3A4 (P08684 whole entry): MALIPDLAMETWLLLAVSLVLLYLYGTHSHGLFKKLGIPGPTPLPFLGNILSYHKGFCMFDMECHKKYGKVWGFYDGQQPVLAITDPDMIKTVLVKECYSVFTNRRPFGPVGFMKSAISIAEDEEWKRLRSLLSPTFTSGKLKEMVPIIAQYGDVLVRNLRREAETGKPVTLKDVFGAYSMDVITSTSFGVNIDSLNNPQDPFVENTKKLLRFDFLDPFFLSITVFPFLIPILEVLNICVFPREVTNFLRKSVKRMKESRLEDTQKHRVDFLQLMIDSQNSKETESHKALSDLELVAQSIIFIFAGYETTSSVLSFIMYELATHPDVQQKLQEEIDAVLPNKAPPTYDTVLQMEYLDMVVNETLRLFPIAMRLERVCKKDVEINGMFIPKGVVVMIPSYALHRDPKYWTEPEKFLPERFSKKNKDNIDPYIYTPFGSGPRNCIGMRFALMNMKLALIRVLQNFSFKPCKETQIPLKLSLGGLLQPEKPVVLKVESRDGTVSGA

For the compound `CC(C)(C)NC(=O)N[C@H](C(=O)N1C[C@H]2[C@@H]([C@H]1C(=O)N[C@@H](CC1CCC1)[C@@H](O)C(N)=O)C2(C)C)C(C)(C)C`, the “inhibition (INH)” value in [1] and in [3] was more than 89% in each case. In addition, the Compound recovery result is “BLD” on Cytochrome P450 3A5 (BLD = below limit of detection); 0.56% at Cytochrome P450 2D6; “BLD” at Cytochrome P450 3A4 (BLD = below limit of detection); 7% in [2]; 68% in the series with Liver cytosol [4].

For the compound `CC(C)(C)NC(=O)N[C@H](C(=O)N1C[C@H]2[C@@H]([C@H]1C(=O)NC(CC1CCC1)C(=O)C(N)=O)C2(C)C)C(C)(C)C` (stereo partly specified) [BOCEPREVIR], the Compound recovery result in the series with Liver cytosol [5] is given as “metabolite_not_detected”; on Cytochrome P450 4F12 it was “metabolite_not_detected”; in the series with Liver cytosol [7] it was “metabolite_not_detected”; in the series on Liver cytosol [8], “metabolite_detected”; with Liver cytosol [9] it was “metabolite_not_detected”; in the series with Liver cytosol [10], “metabolite_detected”. For the same compound, the figures for the Compound recovery result (in series [12]; in the series with Liver cytosol [13]; in series [14]) were “metabolite_not_detected”, “metabolite_not_detected” and “metabolite_detected”, respectively. Also, the Radiolabel recovery in [6] was 9.3%; in [11], 79%.

In the case of `CC(C)(C)NC(=O)N[C@H](C(=O)N1C[C@H]2[C@@H]([C@H]1C(=O)N[C@H](CC1CCC1)C(=O)C(N)=O)C2(C)C)C(C)(C)C`, the Compound recovery came out at 19.67% at Cytochrome P450 3A5, 31.66% at Cytochrome P450 2D6 and 18.98% at Cytochrome P450 3A4.
